Series [1] has as its target SARS-CoV-2 main protease (M^Pro) (Severe acute respiratory syndrome coronavirus 2, UniProt P0DTD1). Briefly: In vitro M^Pro enzymatic inhibition with fluorogenic substrate Sub3. The class given is biochemical. Conditions: 20 nM M^Pro, 10 μM Sub3, 30 min preincubation; read-out: Enzymatic IC50.
For series [2], the target named is M^Pro-eGFP fusion protein in 293T cells (Severe acute respiratory syndrome coronavirus 2, UniProt P0DTD1). The series is described as follows: cell-based. Also noted: species or system SARS-CoV-2.
Series [3] relates to SARS-CoV-2 (USA-WA1/2020). The series is described as follows: Plaque reduction neutralization test in Vero E6 cells. The class given is cell-based. Conditions: SARS-CoV-2 USA-WA1/2020, Vero E6 cells, 3 days, read-out: Antiviral EC50. On the technique in general: Plaques are areas of infected cells; plaque reduction assays count them against a control.
A further series in a line: Cytotoxicity, MTT assay. The class given is cell-based. Conditions: human, HEK293T cells, 293T cells. As for the experimental part:
Because of their high antiviral potency, MPI60 and MPI61 were advanced to characterizations of cytotoxicity and in vitro metabolic stability. For the cytotoxicity characterization, we used 293T cells and the MTT assay.[42] […] These CC50 values are similar to that of nirmatrelvir and lead to high calculated selectivity indices (CC50/antiviral EC50) for both compounds. The in vitro metabolic stability analysis for MPI60 and MPI61 was conducted using human liver microsomes.
HEK293T cells were seeded in 96-well plates and incubated at 37 °C and 5% CO2 for 24 h. The cells were then treated with different concentrations (200, 100, 50, 25, 12.5, 6.25, 3.125, 1.5625, 0.78125, and 0 μM) of the tested compound in triplicate for 48 h. Cell viability was assessed by the MTT assay to determine CC50. For the MTT assay, 20 μL MTT (5 mg/mL) was added to each well and incubated with cells for 4 h. After that, the supernatant was removed, and 200 μL DMSO was added per well. The absorbance was recorded at 490 nm. The CC50 value was determined by plotting the normalized cell viability (%) against the compound concentration.
Figure S5. Cytotoxicity curves of MPI60 and MPI61 in 293T cells tested by the MTT assay.
(1 picture or pasted object on this page, not shown here)
In general terms: Tetrazolium dyes change colour on reduction, which living cells bring about.

A short description of series [4]: In vitro metabolic stability in human liver microsomes. Conditions: pH 7.4. (In general: Microsomes from liver hold many membrane-bound enzymes, among them those of drug oxidation.)
The test system of the next series is COVID-19 patients. On the set-up: method as in PMID 34914868. Conditions: patients with mild and moderate COVID-19; cited from earlier work.
Setting [5] is: Severe acute respiratory syndrome coronavirus 2, Vero C1008, 72 h.

Like-named read-outs stand apart in the source and are kept apart here. A value given as a limit tells only on which side of the number the result lay.

In general, IC50 refers to the midpoint of a concentration-inhibition curve. Usually EC50 stands for the concentration giving half of the maximal effect. As a reminder, the CC50 is the concentration that lowers cell viability or growth by half. Broadly, the CLint scaled is a measure of how fast metabolising enzymes remove a compound, apart from limits set by blood flow. Low readings indicate slow turnover, high ones rapid turnover. Broadly, the half-life is how long it takes for the measured level to halve. High values mean slow decline, low ones rapid decline.

Turning to `CC(C)(C)C[C@H](NC(=O)c1cc2ccccc2[nH]1)C(=O)N[C@H](C=O)C[C@@H]1CCNC1=O` [MPI48, N-((S)-4,4-Dimethyl-1-oxo-1-(((S)-1-oxo-3-((S)-2-oxopyrrolidin-3-yl)propan-2-yl)amino)pentan-2-yl)-1H-indole-2-carboxamide], the half-maximal inhibitory concentration (IC50) in series [1] came to 29 nM. In series [2] (read-out: Cellular EC50), the EC50 came out at 1600 nM.

`COc1cccc2[nH]c(C(=O)N[C@@H](CC(C)(C)C)C(=O)N[C@H](C=O)C[C@@H]3CCNC3=O)cc12` [MPI49, N-((S)-4,4-Dimethyl-1-oxo-1-(((S)-1-oxo-3-((S)-2-oxopyrrolidin-3-yl)propan-2-yl)amino)pentan-2-yl)-4-methoxy-1H-indole-2-carboxamide]: the half-maximal inhibitory concentration (IC50) in series [1] came to 74 nM. In addition, the EC50 was found to be 910 nM in series [2] (read-out: Cellular EC50) and 1300 nM in series [3] (setting [5]).

For `CC(C)(C)C[C@H](NC(=O)OCc1ccccc1)C(=O)N[C@H](C=O)C[C@@H]1CCNC1=O` [MPI50, Benzyl ((S)-4,4-Dimethyl-1-oxo-1-(((S)-1-oxo-3-((S)-2-oxopyrrolidin-3-yl)propan-2-yl)amino)pentan-2-yl)carbamate], the IC50 in series [1] is 53 nM. The EC50 in series [2] (read-out: Cellular EC50) is 730 nM; in series [3], 750 nM; in series [3] (setting [5]), less than 1000 nM.

For `O=C[C@H](C[C@@H]1CCNC1=O)NC(=O)[C@H](CC1CCCCC1)NC(=O)OCc1ccccc1` [MPI51, Benzyl ((S)-3-Cyclohexyl-1-oxo-1-(((S)-1-oxo-3-((S)-2-oxopyrrolidin-3-yl)propan-2-yl)amino)propan-2-yl)carbamate], in series [1], the half-inhibitory concentration (IC50) came out at 56 nM. For the same compound, the half-maximal effective concentration (EC50) in series [2] (read-out: Cellular EC50) was 770 nM; in series [3] (setting [5]), 6700 nM.

As to `O=C[C@H](C[C@@H]1CCNC1=O)NC(=O)[C@H](CC1CCCCC1)NC(=O)OCc1cccc(Cl)c1` [MPI52, 3-Chlorobenzyl ((S)-3-Cyclohexyl-1-oxo-1-(((S)-1-oxo-3-((S)-2-oxopyrrolidin-3-yl)propan-2-yl)amino)propan-2-yl)carbamate], the 50% inhibitory concentration (IC50) in series [1] turned out to be 110 nM. The EC50 in series [2] (read-out: Cellular EC50) was found to be 590 nM; in series [3] (setting [5]) it was 2600 nM.

Consider `CC(=O)Oc1cccc(COC(=O)N[C@@H](CC2CCCCC2)C(=O)N[C@H](C=O)C[C@@H]2CCNC2=O)c1` [MPI53, 3-(((((S)-3-Cyclohexyl-1-oxo-1-(((S)-1-oxo-3-((S)-2-oxopyrrolidin-3-yl)propan-2-yl)amino)propan-2-yl)carbamoyl)oxy)methyl)phenyl Acetate], for which, in series [1], the IC50 turned out to be 98 nM. In series [2] (read-out: Cellular EC50), the EC50 amounted to 3500 nM.

Regarding `CC1(C)[C@@H]2[C@@H](C(=O)NC(C=O)CC3CCNC3=O)N(C(=O)OCc3ccccc3)C[C@@H]21` (stereo partly drawn) [MPI57, Benzyl (1R,2S,5S)-6,6-Dimethyl-2-((1-oxo-3-(2-oxopyrrolidin-3-yl)propan-2-yl)carbamoyl)-3-azabicyclo[3.1.0]hexane-3-carboxylate], the EC50 in series [3] (setting [5]) came to 1500 nM.

For the compound `O=C[C@H](C[C@@H]1CCNC1=O)NC(=O)[C@@H]1CC2(CC2)CN1C(=O)OCc1ccccc1` [MPI58, Benzyl (S)-6-(((S)-1-oxo-3-((S)-2-oxopyrrolidin-3-yl)propan-2yl)carbamoyl)-5-azaspiro[2,4]heptane-5-carboxylate], in series [1], the IC50 was found to be 25 nM. In addition, the 50% effective concentration (EC50) was found to be 660 nM in series [2] (read-out: Cellular EC50) and 3600 nM in series [3] (setting [5]).

Regarding `O=C[C@H](C[C@@H]1CCNC1=O)NC(=O)[C@@H]1CC2(CCC2)CN1C(=O)OCc1ccccc1` [MPI59, Benzyl (S)-7-(((S)-1-Oxo-3-((S)-2-oxopyrrolidin-3-yl)propan-2-yl)carbamoyl)-6-azaspiro[3.4]octane-6-carboxylate], in series [1], the IC50 amounted to 30 nM. Besides, the EC50 was 430 nM in series [2] (read-out: Cellular EC50), 560 nM in series [3] and less than 1000 nM in series [3] (setting [5]).

`O=C[C@H](C[C@@H]1CCNC1=O)NC(=O)C1CC2(CCCC2)CN1C(=O)OCc1ccccc1` (stereo partly drawn) [MPI60, Benzyl 3-(((S)-1-Oxo-3-((S)-2-oxopyrrolidin-3-yl)propan-2-yl)carbamoyl)-2-azaspiro[4.4]nonane-2-carboxylate]: the IC50 in series [1] came to 22 nM. Also, the EC50 is 88 nM in series [2] (read-out: Cellular EC50) and less than 100 nM in series [2] (read-out: cellular EC50). In “Cytotoxicity, MTT assay”, this compound yielded a 50% cytotoxic concentration (CC50) at 48 h of 95000 nM. Besides, the CLint scaled at 5 μM in series [4] amounted to 16 mL/min/kg. The compound also registered a half-life at 5 μM in series [4] of 1.82 h.

As to `O=C[C@H](C[C@@H]1CCNC1=O)NC(=O)C1CC2(CCCCC2)CN1C(=O)OCc1ccccc1` (stereo partly drawn) [MPI61, Benzyl 3-(((S)-1-Oxo-3-((S)-2-oxopyrrolidin-3-yl)propan-2-yl)carbamoyl)-2-azaspiro[4.5]decane-2-carboxylate], in series [1], the IC50 was 49 nM. Moreover, the values for the EC50 in series [2] (read-out: Cellular EC50) and in series [2] (read-out: cellular EC50) were 85 nM and less than 100 nM, respectively. In “Cytotoxicity, MTT assay”, the CC50 at 48 h stood at 230000 nM. For the same compound, the intrinsic metabolic clearance (CLint scaled) at 5 μM in series [4] was 45 mL/min/kg. Moreover, in series [4], the half-life at 5 μM turned out to be 0.633 h.

Consider `O=C[C@H](C[C@@H]1CCNC1=O)NC(=O)[C@@H]1CC2(CC2)CN1C(=O)COc1ccc(Cl)cc1Cl` [MPI63, (S)-5-(2-(2,4-Dichlorophenoxy)acetyl)-N-((S)-1-oxo-3-((S)-2-oxopyrrolidin-3-yl)propan-2-yl)-5-azaspiro[2.4]heptane-6-carboxamide], for which, in series [1], the IC50 was 39 nM. The EC50 in series [2] (read-out: Cellular EC50) amounted to 2900 nM.

For the compound `CC1(C)[C@@H]2[C@@H](C(=O)N[C@H](C=O)C[C@@H]3CCNC3=O)N(C(=O)COC3CCCCC3)C[C@@H]21` [MPI64, (1R,2S,5S)-3-(2-(Cyclohexyloxy)acetyl)-6,6-dimethyl-N-((S)-1-oxo-3-((S)-2-oxopyrrolidin-3-yl)propan-2-yl)-3-azabicyclo[3.1.0]hexane-2-carboxamide], in series [1], the half-inhibitory concentration (IC50) was 25 nM. Moreover, the concentration for a half-maximal effect (EC50) in series [2] (read-out: Cellular EC50) was found to be 3600 nM.

Consider `CC1(C)[C@@H]2[C@@H](C(=O)N[C@H](C=O)C[C@@H]3CCNC3=O)N(C(=O)CCC3CCCCC3)C[C@@H]21` [MPI65, (1R,2S,5S)-3-(3-Cyclohexylpropanoyl)-6,6-dimethyl-N-((S)-1-oxo-3-((S)-2-oxopyrrolidin-3-yl)propan-2-yl)-3-azabicyclo[3.1.0]hexane-2-carboxamide], for which the half-inhibitory concentration (IC50) in series [1] is 41 nM. For the same compound, the EC50 in series [2] (read-out: Cellular EC50) is 560 nM; in series [3], 960 nM; in series [3] (setting [5]), less than 1000 nM.

As to `CC(C)C(=O)OC[C@H]1O[C@@H](n2ccc(NO)nc2=O)[C@H](O)[C@@H]1O` [molnupiravir], in the series on COVID-19 patients, the “reduced the risk of hospitalization and death compared to placebo” value is 50%.

The record behind these values is paper PMC10861299, “A Systematic Survey of Reversibly Covalent Dipeptidyl Inhibitors of the SARS-CoV-2 Main Protease” (Journal of Medicinal Chemistry, 2023).
